From ChEMBL document CHEMBL1201862, “PubChem BioAssay data set” (2004) come the findings set out here.

Test systems include CAKI-1; HCC 2998; DMS-273; RXF 393; HCT-116; NCI-H23; SK-MEL-5; SW-620; SF-295; SF-539; K562; M14; MDA-N; DU-145; MDA-MB-231; HT-29; A498; PC-3; BT-549; HL-60.
Holding throughout (assay): NCI tumour cell line growth inhibition, 48 h

SMILES strings stand for the structures.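 48-hour exposure; five concentrations; linearly interpolated endpoints. Here, GI50 denotes the concentration required for 50% inhibition of growth.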 Calls of active or inactive are those of the source. Cut-off read from the data, not from the text of the source: active = GI50 up to about 1.1 µM and inactive = higher. Bounds are passed on as bounds.

On to `COC(=O)C(=O)C(C(=O)C(=O)Nc1cc(C)ccc1C)c1nc2ccc(C(=O)c3ccccc3)cc2nc1O` (stereo not given), for which the GI50 was 27.5 µM (inactive) with CAKI-1; > 100 µM (inactive) in the assay on HCC 2998; 74.3 µM (inactive) in the assay on DMS-273; 46.3 µM (inactive) in the assay on RXF 393; > 100 µM (inactive) in the assay with HCT-116; > 100 µM (inactive) in the assay on NCI-H23. Moreover, the GI50 in the assay with SK-MEL-5 was 62.1 µM (inactive); with SW-620 it was > 100 µM (inactive); in the assay on SF-295, 83.6 µM (inactive); in the assay on SF-539, > 100 µM (inactive); in the assay with K562 it was 31 µM (inactive); with M14, > 100 µM (inactive).
Consider `COc1cccc(NC(=O)CC(=O)N2N=C(C)C(/N=N\c3ccc(S(=O)(=O)c4ccc(/N=N/C5C(=O)N(C(=O)CC(=O)Nc6cccc(OC)c6)N=C5C)cc4)cc3)C2=O)c1` (stereo not given), for which the GI50 in the assay on CAKI-1, in the assay with MDA-N, in the assay on HCC 2998, with DU-145, with MDA-MB-231 and in the assay with RXF 393 was > 100 µM (inactive) throughout. The GI50 with HCT-116, in the assay with NCI-H23, in the assay on SK-MEL-5, in the assay with HT-29, with A498 and with SW-620 was > 100 µM (inactive) throughout. Moreover, the GI50 in the assay on SF-295, with SF-539, in the assay with PC-3, with BT-549, in the assay with HL-60 and in the assay on K562 was > 100 µM (inactive) in each case. In addition, the GI50 with M14 was > 100 µM (inactive).
Regarding `CCOC(=O)C(SCCO)C(C(=O)OCC)n1cnc2c(N)ncnc21` (stereo not given), the GI50 in the assay with CAKI-1 is 4.31 µM (inactive); in the assay with MDA-N it was 15.8 µM (inactive); with HCC 2998, 13.8 µM (inactive); in the assay on DU-145 it was > 67.3 µM (inactive); in the assay on MDA-MB-231, 15.5 µM (inactive); with RXF 393, 14.6 µM (inactive). Further, the GI50 in the assay with HCT-116 is 8.95 µM (inactive); in the assay with NCI-H23, 14.8 µM (inactive); in the assay on SK-MEL-5, 23.1 µM (inactive); in the assay on HT-29, 11 µM (inactive); in the assay with A498, 14.9 µM (inactive); with SW-620 it was 3.01 µM (inactive). Further, the GI50 in the assay on SF-295 was 40.2 µM (inactive); with SF-539 it was 16.3 µM (inactive); in the assay with PC-3, 6.05 µM (inactive); in the assay on BT-549, 15.3 µM (inactive); in the assay on HL-60, 2 µM (inactive); in the assay on K562, 3.66 µM (inactive). For the same molecule, the GI50 in the assay with M14 was 5.07 µM (inactive).
Regarding `CCCCCCCCCCCC(=O)NCc1ccc(OC(=O)CCCCCCCCCCC)c(OC)c1`, the GI50 is > 100 µM (inactive) with CAKI-1; 61.4 µM (inactive) in the assay with MDA-N; > 64.6 µM (inactive) in the assay on HCC 2998; > 79.3 µM (inactive) in the assay on DU-145; > 100 µM (inactive) in the assay with MDA-MB-231; > 100 µM (inactive) in the assay with RXF 393. Moreover, the GI50 in the assay on HCT-116 is 65.2 µM (inactive); in the assay on NCI-H23 it was 32.8 µM (inactive); with SK-MEL-5, > 63 µM (inactive); in the assay on HT-29, 37.8 µM (inactive); in the assay with A498 it was > 100 µM (inactive); with SW-620, > 100 µM (inactive). Further, the GI50 is > 66.4 µM (inactive) in the assay on SF-295; 3.56 µM (inactive) in the assay on SF-539; 15.1 µM (inactive) with PC-3; > 100 µM (inactive) with BT-549; 6.07 µM (inactive) in the assay on HL-60; > 83 µM (inactive) with K562. In addition, the GI50 in the assay with M14 is 32.7 µM (inactive).
Regarding `CN(C)c1ccc(/C=C(\NC(=O)c2ccccc2)C(=O)NC(Cc2c[nH]c3ccccc23)C(=O)O)cc1` (stereo not given), the GI50 in the assay with CAKI-1, in the assay on MDA-N, with HCC 2998, with DU-145, with MDA-MB-231 and with RXF 393 was > 100 µM (inactive) each time. For the same molecule, the GI50 in the assay on HCT-116, with NCI-H23, in the assay with SK-MEL-5, in the assay on HT-29, in the assay on A498 and in the assay with SW-620 was > 100 µM (inactive) throughout. The GI50 in the assay on SF-295, in the assay with SF-539, in the assay with PC-3, in the assay on BT-549, in the assay with HL-60 and with K562 was > 100 µM (inactive) throughout. The GI50 in the assay with M14 is > 100 µM (inactive).
For the molecule `COc1cc(/C=C2\N=C(c3ccccc3)N(/N=C3\C(=O)Nc4ccccc43)C2=O)cc(OC)c1OC`, the GI50 in the assay on CAKI-1 is > 100 µM (inactive); with MDA-N, 42.3 µM (inactive); in the assay on HCC 2998, > 100 µM (inactive); in the assay on DU-145, > 100 µM (inactive); in the assay with MDA-MB-231 it was > 100 µM (inactive); in the assay with RXF 393, > 100 µM (inactive). The GI50 was > 100 µM (inactive) in the assay with HCT-116; 86.1 µM (inactive) in the assay with NCI-H23; > 100 µM (inactive) in the assay on SK-MEL-5; > 100 µM (inactive) in the assay with HT-29; > 100 µM (inactive) in the assay with A498; > 100 µM (inactive) with SW-620. In addition, the GI50 is > 100 µM (inactive) in the assay on SF-295; > 100 µM (inactive) with SF-539; > 100 µM (inactive) in the assay on PC-3; > 100 µM (inactive) in the assay on BT-549; 94.4 µM (inactive) in the assay with HL-60; > 100 µM (inactive) in the assay on K562. Further, in the assay on M14, the GI50 was > 100 µM (inactive).
As for `CN(C)CC1CCC(CN(C)C)C1=NO` (stereo not given), the GI50 in the assay on CAKI-1, in the assay on HCC 2998, with DMS-273, in the assay on RXF 393, in the assay on HCT-116 and with SK-MEL-5 was > 100 µM (inactive) in each case. For the same molecule, the GI50 was > 100 µM (inactive) with HT-29; > 100 µM (inactive) in the assay on SW-620; > 10 µM (inactive) with SF-295; > 100 µM (inactive) in the assay with SF-539; > 100 µM (inactive) with K562; > 100 µM (inactive) with M14.
As to `CC(CNC(N)=O)NC(N)=O` (stereo not given), the GI50 in the assay on CAKI-1, in the assay on MDA-N, in the assay with HCC 2998, in the assay with DU-145, with MDA-MB-231 and in the assay on RXF 393 was > 100 µM (inactive) each time. Besides, the GI50 in the assay with HCT-116, in the assay with NCI-H23, with SK-MEL-5, with HT-29, in the assay with A498 and in the assay with SW-620 was > 100 µM (inactive) in each case. In addition, the GI50 in the assay with SF-295, in the assay on SF-539, in the assay with PC-3, with BT-549, with HL-60 and with K562 was > 100 µM (inactive) each time. In addition, the GI50 in the assay on M14 was > 100 µM (inactive).
Consider `Cc1c(C(=O)Nc2ccccc2)nnn1-c1ccnc2cc(C(F)(F)F)ccc12`, for which the GI50 in the assay on CAKI-1 is 37.5 µM (inactive); in the assay on MDA-N, 33.3 µM (inactive); with HCC 2998, 38.1 µM (inactive); in the assay on DU-145 it was 49.3 µM (inactive); with MDA-MB-231, 19.1 µM (inactive); in the assay on RXF 393 it was 35.3 µM (inactive). The GI50 is 45.5 µM (inactive) in the assay on HCT-116; 50.6 µM (inactive) with NCI-H23; 20.5 µM (inactive) in the assay on SK-MEL-5; 80.2 µM (inactive) in the assay on HT-29; 82.8 µM (inactive) in the assay with A498; > 100 µM (inactive) in the assay on SW-620. Moreover, the GI50 is 46.7 µM (inactive) in the assay with SF-295; > 100 µM (inactive) in the assay on SF-539; 30.1 µM (inactive) with PC-3; > 100 µM (inactive) with BT-549; 35 µM (inactive) in the assay on HL-60; 37.2 µM (inactive) in the assay with K562. Also, in the assay with M14, the GI50 is 41.9 µM (inactive).
On to `COc1cc(C2C=C(c3ccccc3)Oc3cc4c(cc32)OCO4)cc(OC)c1OC` (stereo not given), for which the GI50 in the assay on CAKI-1 was 0.507 µM (active); in the assay on MDA-N, 0.249 µM (active); with HCC 2998, 0.341 µM (active); with DU-145, 0.361 µM (active); in the assay with MDA-MB-231, 0.458 µM (active); in the assay with RXF 393, 0.0843 µM (active). Besides, the GI50 was 0.311 µM (active) in the assay with HCT-116; 0.436 µM (active) with NCI-H23; 0.502 µM (active) in the assay on SK-MEL-5; 0.324 µM (active) in the assay on HT-29; 0.495 µM (active) in the assay on A498; 0.406 µM (active) in the assay with SW-620. Besides, the GI50 in the assay with SF-295 is 0.124 µM (active); with SF-539 it was 0.265 µM (active); in the assay on PC-3 it was 0.354 µM (active); in the assay with BT-549 it was 0.632 µM (active); in the assay with HL-60, 0.521 µM (active); in the assay on K562, 0.435 µM (active). Besides, in the assay with M14, the GI50 is 0.35 µM (active).
For `O=c1[nH]c(=O)n(C2CC(O)C(CO)O2)cc1I` (stereo not given), the GI50 in the assay on CAKI-1 is 63.8 µM (inactive); in the assay with MDA-N, > 100 µM (inactive); with HCC 2998, > 82.6 µM (inactive); in the assay on DU-145 it was > 100 µM (inactive); in the assay with MDA-MB-231, > 100 µM (inactive); with RXF 393, > 100 µM (inactive). Further, the GI50 with HCT-116, in the assay on NCI-H23, in the assay on SK-MEL-5, in the assay with HT-29, in the assay with A498 and with SW-620 was > 100 µM (inactive) in each case. The GI50 in the assay on SF-295 is > 100 µM (inactive); with SF-539, > 100 µM (inactive); in the assay on PC-3, > 100 µM (inactive); in the assay with BT-549, > 100 µM (inactive); in the assay with HL-60, > 81.3 µM (inactive); with K562 it was > 23.1 µM (inactive). The GI50 in the assay on M14 was > 70.3 µM (inactive).
